“Also recorded” adds a separate entry of the source.
What was measured:
[1] = target: T1, P-gp (Homo sapiens, UniProt P08183); test: A-to-B and B-to-A transport in LLC-PK1 cells overexpressing P-gp; assay type: in vitro ADME; conditions: P-gp (MDR1), efflux
[2] = target: T2, OATP1B1 (Homo sapiens, UniProt Q9Y6L6); test: Uptake in HEK293 cells overexpressing OATP1B1; assay type: in vitro ADME; conditions: OATP1B1-mediated uptake
T2 sequence (Q9Y6L6 1-691): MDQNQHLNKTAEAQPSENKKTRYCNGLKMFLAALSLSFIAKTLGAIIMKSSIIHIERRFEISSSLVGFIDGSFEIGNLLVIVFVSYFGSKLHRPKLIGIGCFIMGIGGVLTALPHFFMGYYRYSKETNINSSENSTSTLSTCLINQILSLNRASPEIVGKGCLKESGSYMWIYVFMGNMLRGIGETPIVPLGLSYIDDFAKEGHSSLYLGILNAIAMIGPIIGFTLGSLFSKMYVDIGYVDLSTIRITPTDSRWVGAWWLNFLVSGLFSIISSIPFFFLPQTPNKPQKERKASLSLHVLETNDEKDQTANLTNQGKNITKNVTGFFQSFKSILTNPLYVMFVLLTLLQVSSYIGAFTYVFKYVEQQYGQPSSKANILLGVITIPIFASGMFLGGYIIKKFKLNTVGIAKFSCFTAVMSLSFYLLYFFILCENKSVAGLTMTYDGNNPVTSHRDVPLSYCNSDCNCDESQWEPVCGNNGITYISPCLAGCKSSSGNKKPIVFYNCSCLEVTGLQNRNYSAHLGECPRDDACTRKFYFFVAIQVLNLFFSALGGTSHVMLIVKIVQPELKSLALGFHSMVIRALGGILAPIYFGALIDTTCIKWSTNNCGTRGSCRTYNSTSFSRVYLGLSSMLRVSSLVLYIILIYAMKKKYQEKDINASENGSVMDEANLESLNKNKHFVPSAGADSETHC

[3] = target: T1, P-gp; test: Inhibitory effect of catalposide on P-gp transport activity; assay type: in vitro ADME; conditions: probe 0.1 μM [3H]digoxin, catalposide 1–100 μM
[4] = 3-hour incubation in human plasma; cited from earlier work
[5] = Pharmacokinetics in rats after intravenous administration; assay type: in vivo; conditions: from the cited clearance values
[6] = target: T3, OAT1 (Homo sapiens, UniProt Q4U2R8); test: Uptake in HEK293 cells overexpressing OAT1; assay type: in vitro ADME; conditions: OAT1, influx
T3 sequence (Q4U2R8 1-563): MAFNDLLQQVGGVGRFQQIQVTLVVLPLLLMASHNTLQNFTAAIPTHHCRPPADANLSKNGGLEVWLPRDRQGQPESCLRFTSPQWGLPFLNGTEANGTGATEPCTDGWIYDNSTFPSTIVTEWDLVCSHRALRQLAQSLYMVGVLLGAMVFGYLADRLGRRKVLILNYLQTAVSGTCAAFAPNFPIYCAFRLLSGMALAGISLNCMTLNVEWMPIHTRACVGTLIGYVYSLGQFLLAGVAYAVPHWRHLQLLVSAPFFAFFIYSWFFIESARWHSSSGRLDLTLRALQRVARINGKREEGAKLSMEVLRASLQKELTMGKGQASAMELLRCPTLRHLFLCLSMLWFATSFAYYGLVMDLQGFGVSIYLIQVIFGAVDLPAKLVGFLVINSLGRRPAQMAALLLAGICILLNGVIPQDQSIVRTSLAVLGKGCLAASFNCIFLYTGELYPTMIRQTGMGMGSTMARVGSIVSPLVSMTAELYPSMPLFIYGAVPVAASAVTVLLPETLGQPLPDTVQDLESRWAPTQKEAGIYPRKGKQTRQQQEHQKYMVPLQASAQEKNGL

[7] = target: T3, OAT1; test: Inhibitory effect of catalposide on OAT1 transport activity; assay type: in vitro ADME; conditions: probe 1 μM PAH, catalposide 0–100 μM

T1 sequence (P08183 whole entry): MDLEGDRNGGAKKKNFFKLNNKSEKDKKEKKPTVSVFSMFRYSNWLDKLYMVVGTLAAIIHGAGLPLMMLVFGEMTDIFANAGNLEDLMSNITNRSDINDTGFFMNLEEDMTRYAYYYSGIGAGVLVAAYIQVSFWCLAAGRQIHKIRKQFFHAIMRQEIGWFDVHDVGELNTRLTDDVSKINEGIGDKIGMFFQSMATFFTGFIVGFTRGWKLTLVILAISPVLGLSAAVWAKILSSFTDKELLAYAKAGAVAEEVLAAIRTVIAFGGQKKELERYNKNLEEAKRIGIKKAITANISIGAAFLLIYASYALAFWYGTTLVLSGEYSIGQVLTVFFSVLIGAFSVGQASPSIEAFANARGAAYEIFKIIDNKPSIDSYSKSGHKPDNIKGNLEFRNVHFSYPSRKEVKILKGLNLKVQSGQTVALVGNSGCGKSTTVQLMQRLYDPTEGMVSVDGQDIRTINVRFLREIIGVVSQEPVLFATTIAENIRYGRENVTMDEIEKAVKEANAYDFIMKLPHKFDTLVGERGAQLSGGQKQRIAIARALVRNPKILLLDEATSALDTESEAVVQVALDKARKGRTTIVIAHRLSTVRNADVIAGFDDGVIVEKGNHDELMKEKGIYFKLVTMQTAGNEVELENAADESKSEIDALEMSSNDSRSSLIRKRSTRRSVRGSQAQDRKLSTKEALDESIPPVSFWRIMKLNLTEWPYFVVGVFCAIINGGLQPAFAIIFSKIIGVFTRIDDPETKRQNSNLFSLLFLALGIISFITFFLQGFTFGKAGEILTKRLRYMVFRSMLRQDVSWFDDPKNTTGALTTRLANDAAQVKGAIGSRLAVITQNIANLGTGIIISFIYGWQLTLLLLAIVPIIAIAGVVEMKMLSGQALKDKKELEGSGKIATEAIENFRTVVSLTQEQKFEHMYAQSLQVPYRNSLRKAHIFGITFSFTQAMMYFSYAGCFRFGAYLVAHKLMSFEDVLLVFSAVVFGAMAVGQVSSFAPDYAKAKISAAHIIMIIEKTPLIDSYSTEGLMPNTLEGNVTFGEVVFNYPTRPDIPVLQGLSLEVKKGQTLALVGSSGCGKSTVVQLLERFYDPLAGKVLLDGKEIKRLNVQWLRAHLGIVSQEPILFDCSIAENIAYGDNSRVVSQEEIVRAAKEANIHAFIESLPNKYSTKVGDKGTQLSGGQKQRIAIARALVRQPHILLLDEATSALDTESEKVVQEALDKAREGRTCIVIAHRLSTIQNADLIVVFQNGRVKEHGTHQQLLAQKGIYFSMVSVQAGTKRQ

## O=C(O[C@H]1[C@@H]2C=CO[C@@H](O[C@@H]3O[C@H](CO)[C@@H](O)[C@H](O)[C@H]3O)[C@@H]2[C@@]2(CO)O[C@@H]12)c1ccc(O)cc1 [catalposide]
[1]
  Substrate: not involved; also recorded: not a substrate
[2]
  Hill coefficient n: ~1
[3]
  Inhibitor: did not significantly inhibit
[4]
  Stability: remained stable
[5]
  Share cleared by nonrenal clearance: approximately 90%
[6]
  Substrate: not involved
[7]
  Inhibitor: did not significantly inhibit

Source: PMC4310350 (Drug Design, Development and Therapy, 2015)
